Laboratory results published in US4816586A, “Delta opioid receptor antagonists” (Regents of the University of Minnesota, priority 1987, dated 1989).

Key:
Assay type in all cases: cell-based
mu opioid receptor = mu opioid receptor (Cavia porcellus, UniProt A0ACM8Q262); experiment: Antagonism of morphine (mu agonist) in the guinea pig ileum (GPI) preparation; design: key to Ke, M: No agonist antagonism observed; conditions: for Kb: compound 100 or 200 nM, 15 min incubation, read-out: Ke
Method: (§1) 1. Guinea Pig Ileal Longitudinal Muscle (GPI). Ilea from guinea pigs were taken approximately 10 cm from the ileocaecal junction, and a strip of longitudinal muscle with the myenteric plexus attached was prepared by method of Rang et al., Brit. J. Pharmacol., 22, 356 (1964), the disclosure of which is incorporated by reference herein. A 1 cm portion of this strip was then mounted between two platinum electrodes placed in a 10 ml organ bath and connected to an isometric transducer; contractions were recorded on a polygraph. Contractions of the ileal strip were initiated by supramaximal rectangular pulses in all preparations (80 V of 0.5 ms duration at a frequency of 0.1 Hz). Krebs bicarbonate solution containing 1.25 μM chlorpheniramine maleate was the bathing solution and was continuously bubbled with 95% O2 and 5% CO2. The organ bath was maintained at 36°-37° C. The longitudinal muscle strip was allowed to equilibrate with continuous stimulation for a minimum of 90 min.

delta opioid receptor [1] = molecular target: T1, delta opioid receptor (Mus musculus, UniProt P32300); experiment: Antagonism of DADLE (delta agonist) in the mouse vas deferens (MVD) preparation; design: Both vasa deferentia were dissected out of mice; from tissue; host or cells: mouse vas deferens; key to Ke, DADLE: No agonist antagonism observed; conditions: for Kb: compound 100 or 200 nM, 15 min incubation, read-out: Ke, DADLE; for relative delta antagonist potency: compared within the series
T1 sequence (P32300 whole entry): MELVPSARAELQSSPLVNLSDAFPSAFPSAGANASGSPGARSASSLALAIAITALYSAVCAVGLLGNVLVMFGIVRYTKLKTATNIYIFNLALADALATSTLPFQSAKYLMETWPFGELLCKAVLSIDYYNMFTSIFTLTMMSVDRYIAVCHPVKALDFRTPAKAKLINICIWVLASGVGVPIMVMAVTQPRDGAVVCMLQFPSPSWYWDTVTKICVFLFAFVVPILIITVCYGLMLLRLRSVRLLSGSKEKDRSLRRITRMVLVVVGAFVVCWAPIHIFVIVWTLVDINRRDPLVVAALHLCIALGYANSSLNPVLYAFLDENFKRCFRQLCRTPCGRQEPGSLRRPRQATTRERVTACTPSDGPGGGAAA
Method: (§2) The organ bath was maintained at 37° C.
The results of these bioassays are summarized on Table IV, below.

kappa opioid receptor = molecular target: T2, kappa opioid receptor (Cavia porcellus, UniProt P41144); experiment: Antagonism of ethylketazocine (kappa agonist) in the guinea pig ileum (GPI) preparation; design: key to Ke, EK: No agonist antagonism observed; conditions: for Kb: compound 100 or 200 nM, 15 min incubation, read-out: Ke, EK
T2 construct: a strip of longitudinal muscle with the myenteric plexus attached was prepared; from tissue; host or cells: guinea pig ileum longitudinal muscle with myenteric plexus
T2 sequence (P41144 whole entry): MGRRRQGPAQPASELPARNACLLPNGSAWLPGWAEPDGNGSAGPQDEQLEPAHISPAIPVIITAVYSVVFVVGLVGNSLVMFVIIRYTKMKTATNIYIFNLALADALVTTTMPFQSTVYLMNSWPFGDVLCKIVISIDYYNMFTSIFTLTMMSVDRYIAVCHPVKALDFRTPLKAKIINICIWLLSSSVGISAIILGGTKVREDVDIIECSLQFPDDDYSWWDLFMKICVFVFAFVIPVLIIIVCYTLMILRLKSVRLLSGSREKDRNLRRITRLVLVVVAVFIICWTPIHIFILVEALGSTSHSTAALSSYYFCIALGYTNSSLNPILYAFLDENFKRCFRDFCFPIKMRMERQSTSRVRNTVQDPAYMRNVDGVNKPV
Method: as §1

delta opioid receptor [2] = molecular target: T1, delta opioid receptor; experiment: Comparison as delta antagonist with ICI 174864 and M8008
[3] = tested on: mouse vas deferens (MVD) and guinea pig ileum (GPI) preparations; experiment: Agonist activity in the MVD and GPI preparations
Method: as §1, §2

[4] = compound 7 tested at 5 nM or less

Chain of mu opioid receptor (A0ACM8Q262 1-400): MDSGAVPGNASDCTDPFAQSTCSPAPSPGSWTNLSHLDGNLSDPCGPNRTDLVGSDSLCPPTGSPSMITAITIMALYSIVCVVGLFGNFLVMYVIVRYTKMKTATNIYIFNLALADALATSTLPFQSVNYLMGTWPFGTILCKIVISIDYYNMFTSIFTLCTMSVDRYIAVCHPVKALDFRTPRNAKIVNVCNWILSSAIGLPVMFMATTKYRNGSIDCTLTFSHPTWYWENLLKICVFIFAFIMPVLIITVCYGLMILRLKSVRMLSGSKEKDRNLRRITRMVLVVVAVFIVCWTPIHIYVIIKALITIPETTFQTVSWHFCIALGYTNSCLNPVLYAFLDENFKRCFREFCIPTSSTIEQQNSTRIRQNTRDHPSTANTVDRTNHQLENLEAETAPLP

Compound	Kb (mu opioid receptor)	Kb (delta opioid receptor [1]; agonist DADLE, MVD)	relative delta antagonist potency (delta opioid receptor [1])	Kb (kappa opioid receptor)	other results
Cn1c2c(c3ccccc31)C[C@@]1(O)[C@H]3Cc4ccc(O)c5c4[C@@]1(CCN3CC1CC1)[C@H]2O5 [Compound 2]	12.5 nM	1.5 nM	reduction of antagonist potency	22.2 nM	–
Oc1ccc2c3c1O[C@H]1c4[nH]c5c(F)cccc5c4C[C@@]4(O)[C@@H](C2)N(CC2CC2)CC[C@]314 [Compound 11]	5.3 nM	0.35 nM	–	> 330 nM	–
COc1cccc2c3c([nH]c12)[C@@H]1Oc2c(O)ccc4c2[C@@]12CCN(CC1CC1)[C@H](C4)[C@]2(O)C3 [Compound 14]	35 nM	6.6 nM	–	–	–
Oc1ccc2c3c1O[C@H]1c4[nH]c5ccc(F)cc5c4C[C@@]4(O)[C@@H](C2)N(CC2CC2)CC[C@]314 [Compound 3]	61.7 nM	2 nM	–	46.2 nM	–
O=[N+]([O-])c1ccc2[nH]c3c(c2c1)C[C@@]1(O)[C@H]2Cc4ccc(O)c5c4[C@@]1(CCN2CC1CC1)[C@H]3O5 [Compound 6]	92 nM	168 nM	–	≥ 200 nM	–
COc1ccc2[nH]c3c(c2c1)C[C@@]1(O)[C@H]2Cc4ccc(O)c5c4[C@@]1(CCN2CC1CC1)[C@H]3O5 [Compound 4]	–	5.7 nM	–	12.6 nM	–
Oc1ccc2c3c1O[C@H]1c4[nH]c5ccccc5c4C[C@@]4(O)[C@@H](C2)N(CC2CC2)CC[C@]314 [Compound 1, 17-Cyclopropylmethyl-6,7-dehydro-4,5α-epoxy-3,14-dihydroxy-6,7,2',3'-indolomorphinan]	–	0.22 nM	an order of magnitude more potent than its substituted congeners	–	antagonism of the effect of the delta agonist DADLE / delta antagonist activity (delta opioid receptor [1]): highly active delta antagonist; potency compared with ICI 174864 (delta opioid receptor [2]): considerably more potent than the peptide delta antagonist, ICI 174864; potency relative to the peptide delta antagonist ICI 174864 (delta opioid receptor [2]; in one assay): at least 30 times
Oc1ccc2[nH]c3c(c2c1)C[C@@]1(O)[C@H]2Cc4ccc(O)c5c4[C@@]1(CCN2CC1CC1)[C@H]3O5 [Compound 9]	–	–	–	68.5 nM	–
Oc1ccc2c3c1O[C@H]1c4nc5ccccc5nc4C[C@@]4(O)[C@@H](C2)N(CC2CC2)CC[C@]314 [Compound 16, 6,7,2',3'-benzopyrazino-17-cyclopropylmethyl-6,7-dehydro-3,14-dihydroxy-4,5α-epoxymorphinan]	–	1.4 nM	A similar relationship was observed	13.4 nM	–
Cc1ccc2[nH]c3c(c2c1)C[C@@]1(O)[C@H]2Cc4ccc(O)c5c4[C@@]1(CCN2CC1CC1)[C@H]3O5 [Compound 5]	> 160 nM	4.2 nM	–	> 250 nM	–
Cc1cccc2c3c([nH]c12)[C@@H]1Oc2c(O)ccc4c2[C@@]12CCN(CC1CC1)[C@H](C4)[C@]2(O)C3 [Compound 13]	19.1 nM	1.5 nM	–	> 330 nM	–
CN1CC[C@]23c4c5ccc(O)c4O[C@H]2c2[nH]c4ccccc4c2C[C@@]3(O)[C@H]1C5 [Compound 7]	–	–	–	–	agonist activity [3]: partial agonist activity; relative agonist potency ([3]; compared with the N-cyclopropyl analogues): substantially more potent as an agonist than the N-cyclopropyl analogues; Ke, M (mu opioid receptor; [4]): e; Ke, DADLE (delta opioid receptor [1]; agonist DADLE, MVD, compound 7 tested at 5 nM or less): e; Ke, EK (kappa opioid receptor; [4]): e
Oc1ccc2c3c1O[C@H]1c4oc5ccccc5c4C[C@@]4(O)[C@@H](C2)N(CC2CC2)CC[C@]314 [Compound 8, 6,7,2',3'-Benzofurano-17-cyclopropylmethyl-6,7-dehydro-3,14-dihydroxy-4,5α-epoxymorphinan]	30.8 nM	1.8 nM	less potent	50.8 nM	antagonism of the effect of the delta agonist DADLE / delta antagonist activity (delta opioid receptor [1]): retains substantial delta antagonist activity; relative delta selectivity (delta opioid receptor [1]; compared with compound 1): less selective than 1
Oc1ccc2c3c1O[C@H]1c4[nH]c5cccc(F)c5c4C[C@@]4(O)[C@@H](C2)N(CC2CC2)CC[C@]314 [Compound 10]	> 125 nM	5.5 nM	–	> 170 nM	–
Oc1ccc2c3c1O[C@H]1c4nc5ccccc5cc4C[C@@]4(O)[C@@H](C2)N(CC2CC2)CC[C@]314 [Compound 17, 17-cyclopropylmethyl-6,7-dehydro-4,5α-epoxy-3,14-dihydroxy-6,7,2',3'-quinolinomorphinan]	–	2.7 nM	A similar relationship was observed	16.3 nM	–
